In US20020040062A1, “Protein kinase C activators and their use in decreasing expression of cell antigens” (The Trustees of Columbia University, priority 1993, published 2002):
Marks after values point to notes of the source that are not given here.

Assays:
Assay type in all cases: cell-based, human
BCA 225 [1] = test: BCA 225 shedding into culture medium, double-determinant ELISA; conditions: T47D cells; for BCA 225 Shedding / BCA 225 Shedding, level of enhancement relative to control (equivalent to 1.0) / BCA 225 Shedding, relative change in comparison with controls (equivalent to 1.0): 72 hr; for ability to induce shedding of BCA 225: Table 2
Experimental: (§1) After appropriate incubation times with the various compounds cell lysates were prepared from T47D cells. Cells were washed 3× in PBS, pH 7.6, pelleted and incubated for 1 hr at room temperature in 20 mM Tris HCl, pH 7.4, with PMSF. Cultures were then homogenized with a Teflon homogenizer, centrifuged at 3000 RPM for 10 min at 4° C. and the supernatant was mixed 1:2 with 20 mM Tris-HCl, pH 7.4, containing 0.5% NP40 (Sigma). After 1 hr at 4° C., the mixture was spun at 3000 RPM for 10 min and the supernatant was passed through an EXTRACTIGEL column (Pierce, Ill.) to remove excess detergent. Protein concentration was determined by the BCA micro-method (Pierce, Ill.). BCA 225 levels in cell extracts and supernatants from control and treated T47D cells were quantitated using a double-determinant ELISA assay. Briefly, Cu18 monoclonal antibody coated Nunc Immunoplates (Nunc, Denmark) were blocked with 1% BSA (Sigma, RIA Reagent Grade) and incubated with a 1:2 dilution of supernatant in duplicate. Standard values for a partially purified BCA 225 preparation were used at a range of 0 to 10 μg/ml in RPMI 1640 plus 10% FBS (T47D growth medium). After 2 hr incubation and three washings with PBS 0.1% Tween 20 a Cu46 monoclonal antibody conjugated to peroxidase was applied to the plate, incubated for 2 hr, washed 6× in PBS 0.1% Tween 20 and the reaction was developed with […] OPD (Sigma, St. Louis) and 4 μl of 30% H2O2 in McIlvans buffer, pH […]. The plates were read on a Dynatech Elisa reader and a linear standard curve was generated and used to calculate the relative amount of BCA 225 in cell lysates and shed into the culture medium. Results were adjusted to ng BCA 225 per mg of protein, or per 1×10^6 cells. Replicate samples varied by ≦10% and replicate experiments varied by ≦20%.

BCA 225 [2] = test: BCA 225 synthesis, double-determinant ELISA of T47D cell lysates; conditions: T47D cells, 72 hr
Experimental: as §1

BCA 225 [3] = test: FACS analysis of BCA 225 surface expression in T47D cells; conditions: 72 hr; for BCA 225 Expression, level of enhancement relative to control (equivalent to 1.0): presence or absence of 0.1 μg/ml H-7
Excerpt: (§2) IgG1 murine monoclonal antibody Cu18 and Cu46 recognize two different epitopes of a highly restricted breast carcinoma associated glycoprotein of Mr 225,000 to 250,000 (BCA 225). This TAA is expressed intracytoplasmically and on the membrane of 94% of breast tumors tested and in the T47D human breast carcinoma cell line. BCA 225 is shed into the culture medium by T47D cells and into the sera of breast cancer patients. IgG2a monoclonal antibody L243 (anti HLA Class II-DR) recognizes a monomorphic HLA Class II-DR-α epitope (ATCC M355). Monoclonal antibody CL203.4 [40], which recognizes ICAM-I, was kindly provided by Dr. S. Ferrone, New York Medical College, NY. The c-erbB-2 monoclonal antibody which recognizes the extracellular domain of c-erbB-2 was obtained from Triton Biosciences, Inc., Alamedia, Calif. Monoclonal antibodies Cu18 and Cu46 were used at 0.05 μg/ml and monoclonal antibodies interacting with HLA Class II-DR, ICAM-1 and c-erbB-2 were used at 10 μg/ml. For each experiment, isotype matched control backgrounds (IgG for Cu18, Cu46 and ICAM-1, IgG2a for HLA Class Ii and IgG2b for c-erbB-2) were subtracted from the experimental results. Background from antimouse IgG FITC antibody was also subtracted from experimental results. Applicants never observed backgrounds higher than 2% of total cells for isotypic mouse IgG or higher than 5% for antimouse IgG FITC.
(§3) T47D cells treated with the various compounds were analyzed by flow cytometry using appropriate monoclonal antibody concentrations as described previously. Briefly, 1×10^5 cells were incubated with the test antibody for 30 min at 4° C., washed 3× with PBS and incubated with a goat a mouse F (ab)2 FITC conjugated test antibody at a 1:40 dilution for 30 min at 4° C. Cells were then washed 3× with PBS and analyzed on a FACStar (Beckon Dickinson, Mountain View, Calif.) or a Coulter Epics IV FACS (Coulter, Hialeah, Fla.). Results are expressed as mean fluorescence intensity (MFI) units which were determined as described previously. MFI=(mean channel fluorescence in fluorescence positive antibody-binding cells×% of fluorescence positive antibody-binding cells)−(mean channel fluorescence in unstained cells×% of fluorescence positive cells in the unstained population). All studies were performed a minimum of three or four times with duplicate samples in each experiment. Replicate samples within individual experiments varied by ≦10% and variation between experiments were generally ≦20%.

HLA Class II antigens = test: FACS analysis of HLA Class II antigen surface expression in T47D cells; conditions: for HLA Class II level of upregulation versus untreated control cells (equivalent to 1.0): presence or absence of 0.1 μg/ml H-7; for HLA Class II relative increase in expression versus untreated controls (equivalent to 1.0): presence or absence of 1.0 μg/ml H-7; for fold increase in HLA Class II expression: 500 units/ml IFN-α, IFN-β or IFN-γ as in Table 3
Excerpt: as §2, with “μg/ml.” for “μg/ml. For each experiment, isotype matched control backgrounds (IgG for Cu18, Cu46 and ICAM-1, IgG2a for HLA Class Ii and IgG2b for c-erbB-2) were subtracted from the experimental results. Background from antimouse IgG FITC antibody was also subtracted from experimental results. Applicants never observed backgrounds higher than 2% of total cells for isotypic mouse IgG or higher than 5% for antimouse IgG FITC.”
as §3, with “experiment.” for “experiment. Replicate samples within individual experiments varied by ≦10% and variation between experiments were generally ≦20%.”

[4] = 0.1 μg/ml TPA, 0.1 μg/ml MEZ or 0.25 μg/ml ADMB, presence or absence of 0.1 μg/ml H-7
[5] = 500 units/ml IFN-β or 50 units/ml IFN-γ, presence or absence of 1.0 μg/ml H-7
[6] = 0.1 μg/ml TPA, 0.1 μg/ml MEZ or 0.25 μg/ml ADMB
[7] = 0.1 μg/ml TPA, 0.1 μg/ml MEZ or 0.25 μg/ml ADMB, presence or absence of 0.1 μg/ml H-7, CU18 antibody
[8] = 72 hr, 0.1 μg/ml TPA or MEZ, presence or absence of 0.1 μg/ml H-7, FACStar
[9] = 72 hr, 500 units/ml IFN-β or 50 units/ml IFN-γ
[10] = 72 hr, 500 units/ml IFN-β or 50 units/ml IFN-γ, presence or absence of 1.0 μg/ml H-7, Coulter Epics IV FACS

| Molecule | BCA 225 Shedding (BCA 225 [1]; [4]) | BCA 225 Shedding, level of enhancement relative to control (equivalent to 1.0) (BCA 225 [1]; [4]) | BCA 225 Shedding (BCA 225 [1]; [5]) | BCA 225 Shedding, relative change in comparison with controls (equivalent to 1.0) (BCA 225 [1]; [5]) | BCA 225 Synthesis (BCA 225 [2]; [4]) | BCA 225 Synthesis, level of enhancement relative to control (equivalent to 1.0) (BCA 225 [2]; [4]) | BCA 225 Synthesis (BCA 225 [2]; [5]) | BCA 225 Synthesis, relative change in comparison with controls (equivalent to 1.0) (BCA 225 [2]; [5]) | BCA 225 Expression, level of enhancement relative to control (equivalent to 1.0) (BCA 225 [3]; [6]) | BCA 225 Expression (BCA 225 [3]; [7]) | BCA 225 Expression (BCA 225 [3]; [5]) | BCA 225 Expression, relative change in comparison with controls (equivalent to 1.0) (BCA 225 [3]; [5]) | HLA Class II level of upregulation versus untreated control cells (equivalent to 1.0) (HLA Class II antigens; 72 hr, 0.1 μg/ml TPA or MEZ) | Antigenic Expression (MFI) HLA Class II (HLA Class II antigens; [8]) | HLA Class II relative increase in expression versus untreated controls (equivalent to 1.0) (HLA Class II antigens; [9]) | Antigenic Expression (MFI) HLA Class II (HLA Class II antigens; [10]) | ability to induce shedding of BCA 225 (BCA 225 [1]) | efficacy of upregulation of HLA Class II antigens (fold-change in MFI, FIG. 2) (HLA Class II antigens; 72 hr, 0.1 μg/ml of ADMB, TPA or MEZ) | fold increase in HLA Class II expression (HLA Class II antigens) |
| --- | --- | --- | --- | --- | --- | --- | --- | --- | --- | --- | --- | --- | --- | --- | --- | --- | --- | --- | --- |
| CC1CNCCN1S(=O)(=O)c1cccc2cnccc12.Cl.Cl (stereo not drawn) [H-7, 1-(5-isoquinolinesulfonyl)-2-methylpiperazine dihydrochloride] | 23 ng/ml/10^6 cells | 0.8 | 38 ng/ml/10^6 cells | 0.8 | 142 ng/mg protein | 0.9 | 230 ng/mg protein | 1.0 | 0.8 | 5,428 MFI | 2,560 MFI | 0.9 | (1.3)^b | 4,563 MFI | 1.2 | 3,490 MFI | – | – | – |
| CCCCCCCCCCCCCC(=O)O[C@@H]1[C@@H](C)[C@@]2(O)[C@@H](C=C(CO)C[C@]3(O)C(=O)C(C)=C[C@@H]23)[C@H]2C(C)(C)[C@]12OC(C)=O [TPA, 12-0-tetradecanoyl-phorbol-13-acetate] | 84 ng/ml/10^6 cells | 3.0 | – | – | 394 ng/mg protein | 2.4 | – | – | 1.8 | 11,696 MFI | – | – | (2.9) | 9,984 MFI | – | – | enhance shedding of BCA 225 | – | – |
| C=C(C)[C@@]12O[C@@]3(c4ccccc4)O[C@@H]1[C@@H]1[C@@H]4O[C@]4(CO)[C@@H](O)[C@]4(O)C(=O)C(C)=C[C@H]4[C@@]1(O3)[C@H](C)[C@H]2OC(=O)/C=C/C=C/c1ccccc1 [MEZ, mezerein] | 147 ng/ml/10^6 cells | 5.3 | – | – | 507 ng/mg protein | 3.1 | – | – | 2.5 | 16,065 MFI | – | – | (3.0) | 10,260 MFI | – | – | enhance shedding of BCA 225 | – | – |
| CCCCCCCCCCN(C)c1cc(CO)cc(NC(C)=O)c1 [ADMB, 3-(N-acetylamino)-5-(N-decyl-N-methylamino)-benzyl alcohol] | 26 ng/ml/10^6 cells | 0.9 | – | – | 299 ng/mg protein | 1.8 | – | – | 2.0 | 12,825 MFI | – | – | – | – | – | – | did not induce this effect | somewhat more effective than TPA and MEZ | – |
| IFN-β: recombinant human fibroblast interferon with a serine substituted for a cysteine at position 17 (protein, UniProt P01574 22-187, looked up, variant C17S) Interferon beta: MSYNLLGFLQRSSNFQSQKLLWQLNGRLEYCLKDRMNFDIPEEIKQLQQFQKEDAALTIYEMLQNIFAIFRQDSSSTGWNETIVENLLANVYHQINHLKTVLEEKLEKEDFTRGKLMSSLHLKRYYGRILHYLKAKEYSHCAWTIVRVEILRNFYFINRLTGYLRN | – | – | 69 ng/ml/10^6 cells | 1.5 | – | – | 374 ng/mg protein | 1.7 | – | – | 5,716 MFI | 2.0 | – | – | 10.8 | 31,413 MFI | – | – | 11 fold |
| IFN-γ: recombinant human immune interferon produced in Escherichia coli (protein, UniProt P01579 24-161, looked up) Interferon gamma: QDPYVKEAENLKKYFNAGHSDVADNGTLFLGILKNWKEESDRKIMQSQIVSFYFKLFKNFKDDQSIQKSVETIKEDMNVKFFNSNKKKRDDFEKLTNYSVTDLNVQRKAIHELIQVMAELSPAAKTGKRKRSQMLFRG | – | – | 64 ng/ml/10^6 cells | 1.4 | – | – | 722 ng/mg protein | 3.2 | – | – | 9,069 MFI | 3.2 | – | – | 69.2 | 202,102 MFI | – | – | 69 fold |
